Results reported in patent US12534450B2, “Methods and compositions for targeting PD-L1” (Aligos Therapeutics, Inc., priority 2021, dated 2026).

Experiments:
PD-1/PD-L1 PPI = PD-1/PD-L1 PPI (Homo sapiens, UniProt Q9NZQ7); test: PDL1/PD1 Binding Assay; settings: PDL1-6×His 0.3 nM, PD1-Fc-Avi-Biotin 2.5 nM, Acceptor/Donor beads, Envision reader
Method in brief: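 AlphaScreen competition: compound (1% DMSO) preincubated 30 min RT with PDL1-6×His (0.3 nM), then PD1-Fc-Avi-Biotin (2.5 nM) 30 min; anti-His acceptor and streptavidin donor beads (20 ug/mL each) added, 1 h each, dark up to overnight. Buffer 25 mM Hepes pH 7.4, 150 mM NaCl. IC50 by four-parameter fit.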

PD-1/PD-L1 interaction = test: PD-1/PD-L1 NFAT Reporter Assay (co-culture of Jurkat T cells overexpressing PD-1 and PD-L1 expressing CHO cells); assay type: cell-based; settings: Homo sapiens, Jurkat, 6 h, co-culture 6 hrs at 37° C., NFAT-mediated luciferase activity
Method in brief: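 Compounds added to CHO cells expressing surface anti-CD3 and PD-L1, then Jurkat cells with PD-1 and NFAT-driven luciferase seeded on top; co-culture 6 hrs at 37° C. Luminescence read after ONE-Glo addition, EC50 from dose-response fit.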

Sequence of PD-1/PD-L1 PPI (Q9NZQ7 19-238 limits assumed): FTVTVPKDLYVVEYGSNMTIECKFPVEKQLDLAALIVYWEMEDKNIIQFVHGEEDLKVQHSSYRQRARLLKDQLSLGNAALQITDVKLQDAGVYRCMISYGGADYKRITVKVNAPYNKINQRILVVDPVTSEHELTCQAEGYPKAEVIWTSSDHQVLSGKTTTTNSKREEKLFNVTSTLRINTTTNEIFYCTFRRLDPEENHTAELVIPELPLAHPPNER

Compound | IC50 (PD-1/PD-L1 PPI) [nM] | EC50 (PD-1/PD-L1 interaction) [nM]
COc1nc(-c2cccc(-c3cccc(NC(=O)c4cn(C)c(=O)n(C)c4=O)c3Cl)c2Cl)cc2c1C(NCCO)CC2 [Compound D-5] | ≤ 10 | 10 to 100
COc1nc(-c2cccc(-c3cccc(NC(=O)c4cn(C)c(=O)n(C)c4=O)c3Cl)c2Cl)cc2c1C(N[C@@H]1CCOC[C@H]1O)CC2 (stereo partly drawn) [Compound D-6] | ≤ 10 | 10 to 100
COc1nc(-c2cccc(-c3cccc(NC(=O)c4cn(C)c(=O)n(C)c4=O)c3Cl)c2Cl)cc2c1C(N[C@H]1CCOC[C@H]1O)CC2 (stereo partly drawn) [Compound D-7] | ≤ 10 | 10 to 100
COc1nc(-c2cccc(-c3cccc(NC(=O)c4cn(C)c(=O)n(C)c4=O)c3C)c2Cl)cc2c1C(NCC(N)=O)CC2 [Compound D-9] | ≤ 10 | 10 to 100
COc1nc(-c2cccc(-c3cccc(NC(=O)c4cn(C)c(=O)n(C)c4=O)c3C)c2Cl)cc2c1C(NC1COC1)CC2 [Compound D-10] | ≤ 10 | 10 to 100
COc1nc(-c2cccc(-c3cccc(NC(=O)c4cn(C)c(=O)n(C)c4=O)c3C)c2Cl)cc2c1C(NC1CC1)CC2 [Compound D-11] | ≤ 10 | 10 to 100
COc1nc(-c2cccc(-c3cccc(NC(=O)c4cn(C)c(=O)n(C)c4=O)c3Cl)c2Cl)cc2c1C(N1CC3(CNC(=O)O3)C1)CC2 [Compound D-15] | ≤ 10 | 10 to 100

Now from value to molecule:

IC50 (PD-1/PD-L1 PPI) [nM] | EC50 (PD-1/PD-L1 interaction) [nM] | Compound
10 to 100 | 100 to 1000 | COc1nc(-c2cccc(-c3cccc(NC(=O)c4cn(C)c(=O)n(C)c4=O)c3Cl)c2Cl)cc2c1C(N1CC3(CCN(C(=O)OC(C)(C)C)C3)C1)CC2 [Compound D-16]
≤ 10 | 10 to 100 | COc1nc(-c2cccc(-c3cccc(NC(=O)c4cn(C)c(=O)n(C)c4=O)c3C)c2C)cc2c1C(N1CC(C)(O)C1)CC2 [Compound D-17]
≤ 10 | 10 to 100 | COc1nc(-c2cccc(-c3cccc(NC(=O)c4cn(C)c(=O)n(C)c4=O)c3C)c2C)cc2c1C(N1CC(C)(OC)C1)CC2 [Compound D-18]
≤ 10 | 100 to 1000 | COc1nc(-c2cccc(-c3cccc(NC(=O)c4cn(C)c(=O)n(C)c4=O)c3C)c2C)cc2c1C(N1C[C@@H](O)[C@@H]1C)CC2 (stereo partly drawn) [Compound D-19]
≤ 10 | > 10000 | CCCCOC(=O)N(C[C@@H]1CCC(=O)N1)[C@H]1CCc2cc(-c3cccc(-c4cccc(NC(=O)c5cn(C)c(=O)n(C)c5=O)c4C)c3Cl)nc(OC)c21 [Compound E-2]
≤ 10 | 10 to 100 | COc1nc(-c2cccc(-c3cccc(NC(=O)c4cn(C)c(=O)n(C)c4=O)c3Cl)c2Cl)cc2c1C(N1CC3(CCNC3)C1)CC2 (stereo not shown) [Compound G-1]
≤ 10 | ≤ 10 | COc1nc(-c2cccc(-c3cccc(NC(=O)c4cn(C)c(=O)n(C)c4=O)c3Cl)c2Cl)cc2c1C(N1CC3(CCN(C(C)=O)C3)C1)CC2 (stereo not shown) [Compound H-1]
